The conditions of assay [1]: cited from earlier work.
A further assay has as its system ERα. The assay can be described thus: ERα ChIP-seq (ERα/chromatin interactions) in ZR-75-1 cells. In kind it is cell-based, human. Conditions: control ZR-75-1 cells (pRS-GFP), hormone depleted 72 hours, ligand for 48 hours.
Assay [2] concerns ZR-75-1 cells. The assay can be described thus: RNA-seq global gene expression analysis in ZR-75-1 cells. In kind it is cell-based, human. Conditions: hormone depletion for 72 hours, treated for 48 hours, RNAseq, p<0.05. As for the experimental part:
Transcriptome sequencing analysis of the cell line ZR-75-1 with stable USP9X knockdown or a control vector were performed using RNA-Seq. The reads (14-30 million 50 bp single-end) were mapped to the human reference genome (hg19) using TopHat (Trapnell et al., 2009. Bioinformatics 25: 1105-1127), which allows to span exon-exon splice junctions. TopHat was supplied with a known set of gene models (Ensembl version 64). The open-source tool HTSeq-Count was used to obtain gene expressions. This tool generates a list of the total number of uniquely mapped sequencing reads for each gene that is present in the provided Gene Transfer Format (GTF) file. In order to identify differentially expressed genes, the random sampling model in the R package […] al., 2010. Bioinformatics 26: 136-8.28) was used. […] The input of this method is the absolute number of reads for a gene, which is the output of HTSeq-count. Genes with no expression across both samples in the comparison were discarded from the dataset. The expression levels of the remaining genes were added with 1 in order to avoid negative values after log 2 transformation during the normalization step within this method. […] We therefore asked whether USP9X knockdown in tamoxifen-treated cells would also give rise to a typical estradiol-responsive gene set. […]

The test system of assay [3] is ZR-75-1 cells. Description: Colony formation / proliferation assay in ZR-75-1 cells. In kind it is cell-based, human. The conditions noted are these: 1 μM 4OH-tamoxifen or 10^-7 M fulvestrant. As for the experimental part: The human breast cancer cell lines ZR-75-1 (ATCC CRL-1500), MDA-MB-231 (ATCC HTB-26) and T47D (ATCC HTB133) were cultured in DMEM supplemented with 10% FCS, 2 mM glutamine, 100 μg/ml penicillin, 100 μg/ml streptomycin, and 1 nM estradiol at 37° C. in 5% CO2. […] Phoenix cells (ATCC CRL-3214) were cultured at 37° C. in 5% CO2 in DMEM with 10% FCS, 2 mM glutamine, 100 μg/ml penicillin, and 100 μg/ml streptomycin.
Cells were infected with retroviral supernatant and selected with puromycin (2.0 μg/ml). […] When colonies appeared, cells were fixed in MeOH/HAc (3:1) and subsequently stained with 50% MeOH/10% HAc/0.1% Coomassie.

Where [4] appears, read: early breast cancer, 5 years of adjuvant treatment.

Procedure for ERα: Chromatin Immunoprecipitations (ChIP) were performed as described before (Schmidt et al., 2009. Methods 48: 240-8). For each ChIP, 10 μg of antibody was used, and 100 μl of Protein A magnetic beads (Invitrogen). The antibody used was raised against ERα (SC-543; Santa Cruz).
ChIP DNA was amplified as described (Schmidt et al., 2009. Methods 48: 240-8). Sequences were generated by the Illumina Hiseq 2000 genome analyser (using 50 bp reads), and aligned to the Human Reference Genome (assembly hg19, February 2009). Enriched regions of the genome were identified by comparing the ChIP samples to mixed input using the MACS peak caller (Zhang et al., 2008. Genome Biol 9: R137) version 1.3.7.1.
ChIP-seq data snapshots were generated using the Integrative Genome Viewer IGV 2.1 (www.broadinstitute.org/igv/). Motif analyses were performed through the Cistrome (cistrome.org), applying the SeqPos motif tool (He et al., 2010. Nat Genet 42: 343-7). The genomic distributions of binding sites were analysed using the cis-regulatory element annotation system (CEAS) (Ji et al., 2006. Nucleic Acids Res 34: W551-4). The genes closest to the binding site on both strands were analysed. If the binding region is within a gene, CEAS software indicates whether it is in a 5′UTR, a 3′UTR, a coding exon, or an intron. Promoter is defined as 3 kb upstream from RefSeq 5′ start. […]

In the case of `CC/C(=C(\c1ccccc1)c1ccc(OCCN(C)C)cc1)c1ccccc1.O=C(O)CC(O)(CC(=O)O)C(=O)O` [tamoxifen, (Z)2-[4-(1,2-diphenyl-1-butenyl)phenoxy]-N, N-dimethylethanamine 2-hydroxy-1,2,3-propanetricarboxylate (1:1)], in assay [1] (setting [4]), the “rate of disease recurrence” value is given as “almost halves” and the “reduction of annual breast cancer death rate” value is “one-third”. In addition, in assay [1] (in the next 15 years), the “women who still develop recurrent disease despite adjuvant treatment” value is “one-third”.
As to `CC/C(=C(\c1ccc(O)cc1)c1ccc(OCCN(C)C)cc1)c1ccccc1` [4OH-tamoxifen], the ERα/chromatin interactions entry in the assay with ERα is reported as “far less pronounced”. In the assay with ZR-75-1 cells [2], the “number of genes with altered expression as compared to vehicle” value is recorded as 1906 genes.
As for `C[C@]12CC[C@@H]3c4ccc(O)cc4CC[C@H]3[C@@H]1CC[C@@H]2O` [estradiol], the “number of genes with altered expression as compared to vehicle” value in the assay with ZR-75-1 cells [2] is on record as 8794 genes.
With `C[C@]12CC[C@@H]3c4ccc(O)cc4C[C@@H](CCCCCCCCC[S+]([O-])CCCC(F)(F)C(F)(F)F)[C@H]3[C@@H]1CC[C@@H]2O` (stereo partly drawn) [fulvestrant, (7α,17β)-7-{9-[(4,4,5,5,5-pentafluoropentyl)sulfinyl]nonyl}estra-1,3,5(10)-triene-3,17-diol], the cell proliferation entry in the assay on ZR-75-1 cells [3] is given as “proliferation arrest”.
